Measurements from patent US20250127787A1, “METHODS FOR TREATING PERIPHERAL NEUROPATHY” (University of Pittsburgh - Of the Commonwealth System of …, priority 2021, published 2025).
“Also recorded” adds a separate entry of the source. Like-named read-outs stand apart in the source and are kept apart here.

Legend:
[1] = Pharmacokinetics of 8-aminoguanine: plasma disposition; assay type: in vivo; conditions: single bolus 5 mg/kg through the jugular catheter; for half-life: Sprague-Dawley, rat, plasma, intravenous, 5 mg/kg
Protocol: Rats were anesthetized with urethane (Sigma-Aldrich, St. Louis, MO) at 1.2 g/kg. A continuous infusion of 0.9% sterile saline at 25 ul/min was established via a catheter inserted into the jugular vein. A second catheter to the carotid artery was established in order to collect blood samples (200 μl) which were drawn into a 1 ml syringe prefilled with 50 U heparin. Blood samples were centrifuged at 1300 g for 10 minutes and supernatant (plasma) was then quickly frozen on dry ice and stored at −80° C. until assay. Urine samples were collected by a urethral catheter, centrifuged at 416 g for 10 minutes to remove sediment, and stored as above. Baseline blood samples and urine samples were collected followed by a single bolus of 8-aminoguanine (8-AG, 5 mg/kg) administered through the jugular catheter. Blood samples were collected after 15, 30, 60, 120 and 240 minutes. Urine samples were collected at 1, 2, 4 and 6 hours.
Purines in urine were measured by mass spectrometry using multiple reaction monitoring. Blood samples were diluted 1 to 30 with water, and heavy isotope internal standards were added to each sample. Purines were separated by reversed-phase ultra-performance liquid chromatography (Waters UPLC BEH C18 column, 1.7 μm beads; 2.1×150 mm; Milford, MA) and quantified by multiple reaction monitoring using a triple quadrupole mass spectrometer (TSQ Quantum-Ultra; ThermoFisher Scientific, San Jose, CA) with a heated electrospray ionization source. The mobile phase was a linear gradient flow rate (300 uL/min) of 1% acetic acid in water (pH, 3; mobile phase A) and 100% methanol (mobile phase B), and was delivered with a Waters Acquity ultra-performance liquid chromatographic system. The gradient (A/B) settings were: from 0 to 2 minutes, 99.6%/0.4%; from 2 to 3 minutes, to 98.0%/2.0%; from 3 to 4 minutes, to 85.0%/15.0%; from 4 to 6.5 minutes, to 99.6%/0.4%. […]

IBA-1 = assay: Microglial IBA-1 expression and activation in CYP-CIPN rats; assay type: in vivo, rat; conditions: oral 8-AG; for effect on CYP-induced increase in IBA-1 expression (microglia): Western immunoblotting
Protocol: (§1) Animals: This study employed female Harlan Sprague Dawley (HSD) rats (3-4 mo; Envigo, Indianapolis, IN) and were divided into the following groups: 1) Control, 2) Cyclophosphamide (CYP, 75 mg/kg i.p. in saline vehicle; administered on days 0, 3 and 6 until sacrifice on day 8); 4) Paclitaxel (2 mg/kg i.p., 2 mg/kg i.p. in saline from a stock solution of 50/50 CremophorEL/ethanol); administered on days 0, 2, 4 and 6 until sacrifice on day 8; 4) 8-aminoguanine (8-AG; 5 mg/kg/day in drinking water; beginning 2 weeks prior to either CYP or PAC and continuing until sacrifice (day 8)). The dose of 8-AG was based on the experiments described above. […] All tissues (spinal cord and hindpaw epidermis) were removed from isoflurane anesthetized rats and the tissue was used for various experimental approaches as described below. At the end of tissue removal, animals were sacrificed by thoracotomy.
Thus, the effectiveness of 8-aminoguanine in CYP—CIPN microglial expression and activation was evaluated.

CD68 = CD68 expression in PAC-CIPN rat spinal cord, Western immunoblotting; assay type: in vivo; conditions: 8-AG 5 mg/kg/day in drinking water
Protocol: as §1, with “thoracotomy. […]” for “thoracotomy.”

half-life ([1]; read-out: half-life of first phase of decay (distribution from plasma into tissues) (converted)): 0.38 h
half-life ([1]; read-out: half-life of second phase (elimination from the body) (converted)): 37 h
plasma disposition ([1]; rat plasma): bi-exponential decay
Structure (SMILES): Nc1nc2[nH]c(N)nc2c(=O)[nH]1 [8-AG, 8-Aminoguanine]
effect on CYP-induced increase in IBA-1 expression (microglia) (IBA-1): normalized
effect on CYP-induced increase in IBA-1 expression (microglia) (IBA-1; listed as 8-aminoguanine): reversed; also recorded: normalized
effect on CYP-induced increase in spinal IBA-1 activation (IBA-1; measured by densitometry): normalized
effect on PAC-induced increase in CD68 expression (CD68): significantly reduced
